Laboratory results as given in patent US10899737B2, “Piperazine carbamates and methods of making and using same” (Lundbeck La Jolla Research Center, Inc., priority 2016, dated 2021).

Experiments:
ABHD6 [1] = target: T1, ABHD6 (Mus musculus, UniProt Q8R2Y0); experiment: In vitro competitive activity-based protein profiling (mouse), ABHD6; format: biochemical; details: 1 μM inhibitor, mouse brain membrane fraction or cell lysates; read-out: ABHD6 % inh. 1 μM (mouse)
T1 construct: Proteomes (mouse brain membrane fraction or cell lysates); from tissue; host or cells: mouse brain membrane fraction or cell lysates
T1 sequence (Q8R2Y0 1-336): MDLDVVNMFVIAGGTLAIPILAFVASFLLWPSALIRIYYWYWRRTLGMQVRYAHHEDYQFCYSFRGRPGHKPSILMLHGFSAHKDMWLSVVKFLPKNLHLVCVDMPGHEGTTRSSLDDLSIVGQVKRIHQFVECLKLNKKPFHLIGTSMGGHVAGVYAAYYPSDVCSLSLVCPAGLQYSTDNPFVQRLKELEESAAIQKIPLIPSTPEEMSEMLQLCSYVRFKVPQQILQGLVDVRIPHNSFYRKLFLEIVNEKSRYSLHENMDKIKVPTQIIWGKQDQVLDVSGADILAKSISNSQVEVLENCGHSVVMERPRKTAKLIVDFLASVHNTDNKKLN
Outline: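 Mouse brain membrane proteome or cell lysate (1.0 mg/mL protein) preincubated 30 min at 37 °C with inhibitor, then labelled 30 min at 37 °C with FP-rhodamine probe. Remaining MAGL and ABHD6 activity quantified by in-gel fluorescence band intensity after SDS-PAGE; values are % inhibition at 1 μM.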

MAGL [2] = target: T2, MAGL (Mus musculus, UniProt O35678); experiment: Mouse brain proteomes from inhibitor treated mice, MAGL inhibition; format: in vivo; details: 5 mg/kg oral gavage, C57Bl/6J mouse brain, 4 h following administration; read-out: MAGL % inh. 5 mg/kg (mouse)
T2 construct: Proteomes (mouse brain membrane fraction or cell lysates); from tissue; host or cells: mouse brain membrane fraction or cell lysates
T2 sequence (O35678 1-303): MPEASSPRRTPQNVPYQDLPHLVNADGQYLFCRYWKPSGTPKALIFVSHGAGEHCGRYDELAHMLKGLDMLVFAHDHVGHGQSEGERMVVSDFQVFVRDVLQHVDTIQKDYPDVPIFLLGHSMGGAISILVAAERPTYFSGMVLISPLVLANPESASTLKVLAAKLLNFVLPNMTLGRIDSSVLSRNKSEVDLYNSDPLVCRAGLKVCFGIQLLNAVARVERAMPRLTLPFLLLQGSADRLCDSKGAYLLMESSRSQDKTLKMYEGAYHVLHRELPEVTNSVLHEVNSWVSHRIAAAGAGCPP
Protocol: Preparation of Mouse Brain Proteomes from Inhibitor Treated Mice.
Inhibitors were administered to wild-type C57Bl/6J by oral gavage in a vehicle of polyethylene glycol. Each animal was sacrificed 4 h following administration and brain proteomes were prepared and analyzed according to previously established methods (See Niphakis, M. J., et al. (2011) ACS Chem. Neurosci. and Long, J. Z., et al. Nat. Chem. Biol. 5:37-44).

ABHD6 [3] = target: T3, ABHD6 (Homo sapiens, UniProt Q9BV23); experiment: In vitro competitive activity-based protein profiling (human), ABHD6; format: biochemical; details: human PC3
T3 construct: Proteomes (human prefrontal cortex or cell membrane fractions); endogenous in cells; human prefrontal cortex
T3 sequence (Q9BV23 1-337): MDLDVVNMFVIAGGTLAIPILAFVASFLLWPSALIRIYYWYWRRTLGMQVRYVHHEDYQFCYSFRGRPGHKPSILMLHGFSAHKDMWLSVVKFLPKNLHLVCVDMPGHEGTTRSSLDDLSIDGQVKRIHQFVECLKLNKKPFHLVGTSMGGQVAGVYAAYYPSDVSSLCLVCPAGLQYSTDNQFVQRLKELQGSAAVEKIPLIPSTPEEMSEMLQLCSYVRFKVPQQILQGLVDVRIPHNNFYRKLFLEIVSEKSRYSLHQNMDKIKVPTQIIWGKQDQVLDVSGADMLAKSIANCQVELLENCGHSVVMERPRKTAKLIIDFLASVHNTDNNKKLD
Outline: (§1)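 Human prefrontal cortex or cell membrane proteomes (1.0-2.0 mg/mL protein) preincubated 30 min at 37° C with inhibitor, then labeled 30 min RT with FP-Rh or JW912 probe. After SDS-PAGE, activity taken from fluorescent band intensity for each enzyme.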

MAGL [4] = target: T2, MAGL; experiment: In vitro competitive activity-based protein profiling (mouse), MAGL; format: biochemical; details: for inhibition at 1 µM: 1 μM inhibitor, mouse brain membrane fraction or cell lysates, read-out: MAGL % inh. 1 μM (mouse); for IC50: mouse proteome
Outline: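 Mouse brain membrane fraction or cell lysate proteomes (50 μL, 1.0 mg/mL total protein) were preincubated with inhibitors at varying concentrations for 30 min at 37° C. FP-Rh (1.0 μL, 50 μM in DMSO) was then added for a further 30 min at 37° C. Samples were quenched with 4× SDS loading buffer and resolved by SDS-PAGE. MAGL activity was quantified from fluorescent gel band intensity using ImageJ 1.49 k.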

MAGL [5] = target: T4, MAGL (Homo sapiens, UniProt Q99685); experiment: In vitro competitive activity-based protein profiling (human), MAGL; format: biochemical; details: for inhibition at 1 µM: 1 μM inhibitor, human proteome, 30 min preincubation at 37° C, read-out: MAGL % inh. 1 μM (human); for IC50: human PC3
T4 construct: Proteomes (human prefrontal cortex or cell membrane fractions); from tissue
T4 sequence (Q99685 1-303): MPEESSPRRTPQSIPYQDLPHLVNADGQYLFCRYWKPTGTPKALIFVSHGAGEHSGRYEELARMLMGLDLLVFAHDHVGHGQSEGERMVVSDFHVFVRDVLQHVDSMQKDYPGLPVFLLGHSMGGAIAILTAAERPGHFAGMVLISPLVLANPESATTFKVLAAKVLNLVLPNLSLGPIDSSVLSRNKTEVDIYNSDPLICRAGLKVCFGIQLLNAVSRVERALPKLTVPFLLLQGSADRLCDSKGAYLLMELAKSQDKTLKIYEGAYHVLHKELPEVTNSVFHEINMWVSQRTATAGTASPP
Outline: as §1

Structure (SMILES)	inhibition at 1 µM (ABHD6 [1]) [%]	inhibition at 5 mg/kg (MAGL [2]) [%]	IC50 (ABHD6 [3]) [µM]	inhibition at 1 µM (MAGL [4]) [%]	inhibition at 1 µM (MAGL [5]) [%]	IC50 (MAGL [5]) [µM]	IC50 (MAGL [4]) [µM]
O=C(O)CN1CCC2(CCN(c3cc(C(F)(F)F)ccc3CN3CCN(C(=O)OC(C(F)(F)F)C(F)(F)F)CC3)CC2)C1 [Example 18, 2-(8-(2-((4-(((1,1,1,3,3,3-Hexafluoropropan-2-yl)oxy)carbonyl)piperazin-1-yl)methyl)-5-(trifluoromethyl)phenyl)-2,8-diazaspiro[4.5]decan-2-yl)acetic Acid]	50 to 75	0 to 25	1 to 10	≥ 75	≥ 75	≤ 0.1	≤ 0.1
O=C(OC(C(F)(F)F)C(F)(F)F)N1CCN(Cc2ccc(C(F)(F)F)cc2C2(C(=O)O)CCCC2)CC1 [Example 4, 1-(2-((4-(((1,1,1,3,3,3-Hexafluoropropan-2-yl)oxy)carbonyl)piperazin-1-yl)methyl)-5-(trifluoromethyl)phenyl)cyclopentane-1-carboxylic Acid]	0 to 25	≥ 75	1 to 10	≥ 75	≥ 75	≤ 0.1	≤ 0.1
O=C(O)c1ccsc1-c1cc(C(F)(F)F)ccc1CN1CCN(C(=O)OC(C(F)(F)F)C(F)(F)F)CC1 [Example 8, 2-(2-((4-(((1,1,1,3,3,3-Hexafluoropropan-2-yl)oxy)carbonyl)piperazin-1-yl)methyl)-5-(trifluoromethyl)phenyl)thiophene-3-carboxylic Acid]	25 to 50	≥ 75	1 to 10	≥ 75	≥ 75	≤ 0.1	
O=C(O)Cn1ccc(-c2cc(F)ccc2CN2CCN(C(=O)OC(C(F)(F)F)C(F)(F)F)CC2)n1 [Example 13, 2-(3-(5-Fluoro-2-((4-(((1,1,1,3,3,3-hexafluoropropan-2-yl)oxy)carbonyl)piperazin-1-yl)methyl)phenyl)-1H-pyrazol-1-yl)acetic Acid]	0 to 25	0 to 25	1 to 10	≥ 75	≥ 75	≤ 0.1	
O=C(O)C1CCN(C(=O)c2cc(C(F)(F)F)ccc2CN2CCN(C(=O)OC(C(F)(F)F)C(F)(F)F)CC2)CC1 [Example 35, 1-(2-((4-(((1,1,1,3,3,3-Hexafluoropropan-2-yl)oxy)carbonyl)piperazin-1-yl)methyl)-5-(trifluoromethyl)benzoyl)piperidine-4-carboxylic Acid]	0 to 25	0 to 25	1 to 10	≥ 75	≥ 75	0.1 to 1	0.1 to 1
O=C(O)[C@@H]1CCCN(c2cc(C(F)(F)F)ccc2CN2CCN(C(=O)OC(C(F)(F)F)C(F)(F)F)CC2)C1 [Example 70, (R)-1-(2-((4-(((1,1,1,3,3,3-hexafluoropropan-2-yl)oxy)carbonyl)piperazin-1-yl)methyl)-5-(trifluoromethyl)phenyl)piperidine-3-carboxylic acid]	0 to 25	≥ 75	1 to 10	≥ 75	≥ 75	≤ 0.1	
O=C(O)C1CCN(C(=O)c2cc(CN3CCN(C(=O)OC(C(F)(F)F)C(F)(F)F)CC3)ccc2C(F)(F)F)CC1 [Example 46, 1-(5-((4-(((1,1,1,3,3,3-hexafluoropropan-2-yl)oxy)carbonyl)piperazin-1-yl)methyl)-2-(trifluoromethyl)benzoyl)piperidine-4-carboxylic acid]	0 to 25	0 to 25	1 to 10	≥ 75	≥ 75	≤ 0.1	

Now from value to molecule:

inhibition at 1 µM (ABHD6 [1]) [%]	inhibition at 5 mg/kg (MAGL [2]) [%]	IC50 (ABHD6 [3]) [µM]	inhibition at 1 µM (MAGL [4]) [%]	inhibition at 1 µM (MAGL [5]) [%]	IC50 (MAGL [5]) [µM]	IC50 (MAGL [4]) [µM]	Structure (SMILES)
0 to 25	≥ 75	1 to 10	≥ 75	≥ 75	≤ 0.1		O=C(OC(C(F)(F)F)C(F)(F)F)N1CCN(Cc2ccc(F)cc2C2(C(=O)O)CCCC2)CC1 [Example 40, 1-(5-fluoro-2-((4-(((1,1,1,3,3,3-hexafluoropropan-2-yl)oxy)carbonyl)piperazin-1-yl)methyl)phenyl)cyclopentane-1-carboxylic acid]
0 to 25	≥ 75	1 to 10	≥ 75	≥ 75	≤ 0.1		O=C(OC(C(F)(F)F)C(F)(F)F)N1CCN(Cc2ccc(Cl)cc2C2(C(=O)O)CCCC2)CC1 [Example 26, 1-(5-Chloro-2-((4-(((1,1,1,3,3,3-hexafluoropropan-2-yl)oxy)carbonyl)piperazin-1-yl)methyl)phenyl)cyclopentane-1-carboxylic Acid]
≥ 75	≥ 75	1 to 10	≥ 75	≥ 75	≤ 0.1		O=C(O)C1CCN(c2cc(S(F)(F)(F)(F)F)ccc2CN2CCN(C(=O)OC(C(F)(F)F)C(F)(F)F)CC2)CC1 [Example 78, 1-(2-((4-(((1,1,1,3,3,3-hexafluoropropan-2-yl)oxy)carbonyl)piperazin-1-yl)methyl)-5-(pentafluoro-16-sulfaneyl)phenyl)piperidine-4-carboxylic acid]
≥ 75	0 to 25	1 to 10	≥ 75	≥ 75	≤ 0.1	≤ 0.1	O=C(O)Cn1cc(-c2cc(C(F)(F)F)ccc2CN2CCN(C(=O)OC(C(F)(F)F)C(F)(F)F)CC2)cn1 [Example 6, 2-(4-(2-((4-(((1,1,1,3,3,3-Hexafluoropropan-2-yl)oxy)carbonyl)piperazin-1-yl)methyl)-5-(trifluoromethyl)phenyl)-1H-pyrazol-1-yl)acetic Acid]
0 to 25	≥ 75	1 to 10	≥ 75	≥ 75	≤ 0.1	≤ 0.1	O=C(O)CN1CCCC12CN(c1cc(C(F)(F)F)ccc1CN1CCN(C(=O)OC(C(F)(F)F)C(F)(F)F)CC1)C2 [Example 24, 2-(2-(2-((4-(((1,1,1,3,3,3-Hexafluoropropan-2-yl)oxy)carbonyl)piperazin-1-yl)methyl)-5-(trifluoromethyl)phenyl)-2,5-diazaspiro[3.4]octan-5-yl)acetic Acid]
